Laboratory results: ChEMBL document CHEMBL1134959, “Synthesis and testing of 2alpha-modified 1alpha,25-dihydroxyvitamin D(3) analogues with a double side chain: marked cell differentiation activity” (2002)

Legend:
[1] = molecular target: T1, Vitamin D3 receptor (Bos taurus) (UniProt Q28037); assay: Affinity for bovine thymus vitamin D receptor
T1 sequence (whole entry): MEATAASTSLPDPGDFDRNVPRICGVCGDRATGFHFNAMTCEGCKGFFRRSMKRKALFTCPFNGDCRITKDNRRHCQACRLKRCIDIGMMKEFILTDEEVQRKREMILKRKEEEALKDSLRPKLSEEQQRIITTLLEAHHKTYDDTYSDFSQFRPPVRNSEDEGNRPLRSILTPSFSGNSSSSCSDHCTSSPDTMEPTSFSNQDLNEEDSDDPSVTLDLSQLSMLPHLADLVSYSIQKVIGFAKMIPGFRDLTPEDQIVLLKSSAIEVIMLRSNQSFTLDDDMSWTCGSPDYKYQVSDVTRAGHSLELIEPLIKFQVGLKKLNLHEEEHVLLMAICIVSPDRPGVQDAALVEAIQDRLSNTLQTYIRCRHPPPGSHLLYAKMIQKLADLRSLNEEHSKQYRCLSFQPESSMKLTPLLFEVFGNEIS

HL-60 = assay: Compound was evaluated for its relative cell differentiation of human promyelocytic leukemia cells (HL-60); format: functional

Activity [1] | SMILES | Activity (HL-60)
24 | C=C1/C(=C\C=C2/CCC[C@@]3(C)C2CC[C@@H]3C(CCCC(C)(C)O)CCCC(C)(C)O)C[C@@H](O)C[C@@H]1O (stereo not given in full) | 1060
57 | C=C1/C(=C\C=C2/CCC[C@@]3(C)C2CC[C@@H]3C(CCCC(C)(C)O)CCCC(C)(C)O)C[C@@H](O)[C@H](CCCO)[C@@H]1O (stereo not given in full) | 1280
100 | C=C1/C(=C\C=C2/CCC[C@]3(C)[C@@H]([C@H](C)CCCC(C)(C)O)CC[C@@H]23)C[C@@H](O)C[C@@H]1O [CALCITRIOL] | 100
36 | C=C1/C(=C\C=C2/CCC[C@@]3(C)C2CC[C@@H]3C(CCCC(C)(C)O)CCCC(C)(C)O)C[C@@H](O)[C@H](OCCCO)[C@@H]1O (stereo not given in full) | 1920
53 | C=C1/C(=C\C=C2/CCC[C@@]3(C)C2CC[C@@H]3C(CCCC(C)(C)O)CCCC(C)(C)O)C[C@@H](O)[C@H](C)[C@@H]1O (stereo not given in full) | 3840
